Assay results from patent publication US20040110771A1, “7-(r)-aminotriazolopyrimidines, the production thereof and use of the same for combatting phytopathogenic fungi” (priority 2000, published 2004).

Columns and labels:
Type in all cases: in vivo
Pyrenophora teres = assay: Activity against net blotch of barley caused by Pyrenophora teres; conditions: barley seedlings "Igri", inoculated 24 h after spraying, 6 days
Method: (§1) The active compounds were prepared separately or jointly as a 10% strength emulsion in a mixture of 70% by weight of cyclohexanone, 20% by weight of Nekanil® LN (Lutensol® AP6, wetting agent having emulsifying and dispersing action based on ethoxylated alkylphenols) and 10% by weight of Wettol® EM (nonionic emulsifier based on ethoxylated castor oil) and diluted with water to the desired concentration.
Leaves of potted barley seedlings of the cultivar “Igri” were sprayed to runoff point with an aqueous preparation of active compound which had been prepared from a stock solution made of 10% of active compound, 85% of cyclohexanone and 5% of emulsifier and were inoculated 24 hours after the spray coating had dried on with an aqueous spore suspension of Pyrenophora teres, the net blotch pathogen. The test plants were then placed in a greenhouse at 20-24° C. and 95-100% relative atmospheric humidity. After 6 days, the extent of the development of the disease was determined visually in % infection of the entire leaf area.

[1] = system: Blumeria graminis forma specialis tritici; assay: Activity against mildew of wheat caused by Blumeria graminis forma specialis tritici; conditions: wheat seedlings "Kanzler", dusted with spores 24 h after spraying, 7 days
Method: as §1
Leaves of potted wheat seedlings of the cultivar “Kanzler” were sprayed to runoff point with an aqueous preparation of active compound which had been prepared from a stock solution made of 10% of active compound, 85% of cyclohexanone and 5% of emulsifier and were dusted 24 hours after the spray coating had dried on with spores of mildew of wheat (Blumeria graminis forma specialis tritici). The test plants were then placed in a greenhouse at 20-24° C. and 60-90% relative atmospheric humidity. After 7 days, the extent of the mildew development was determined visually in % infection of the entire leaf area.

Puccinia recondita = assay: Curative activity against brown rust of wheat caused by Puccinia recondita; conditions: curative spray 24 h after inoculation, wheat seedlings "Kanzler", 7 days
Method: as §1
Leaves of potted wheat seedlings of the cultivar “Kanzler” were dusted with spores of brown rust (Puccinia recondita). The pots were then placed in a chamber with high atmospheric humidity (90 to 95%) at 20-22° C. for 24 hours. During this period, the spores germinated and the germinal tubes penetrated into the leaf tissue. The following day, the infected plants were sprayed to runoff point with an aqueous preparation of active compound which had been prepared from a stock solution made of 10% of active compound, 85% of cyclohexanone and 5% of emulsifier. After the spray coating had dried on, the test plants were cultivated in a greenhouse at 20-22° C. and 65-70% relative atmospheric humidity for 7 days. The extent of the rust fungus development on the leaves was then determined.

| SMILES | % infection of the leaves after application of an aqueous preparation comprising . . . ppm of active compound (Pyrenophora teres; 16 ppm) | % infection of the leaves after application of an aqueous preparation comprising . . . ppm of active compound (Pyrenophora teres; 63 ppm) | % infection of the leaves after application of an aqueous preparation comprising . . . ppm of active compound (Pyrenophora teres; 250 ppm) | % infection of the leaves after application of an aqueous preparation comprising . . . ppm of active compound ([1]; 16 ppm) | % infection of the leaves after application of an aqueous preparation comprising . . . ppm of active compound ([1]; 63 ppm) | % infection of the leaves after application of an aqueous preparation comprising . . . ppm of active compound ([1]; 250 ppm) | % infection of the leaves after application of an aqueous preparation comprising . . . ppm of active compound (Puccinia recondita; 250 ppm) | % infection of the leaves after application of an aqueous preparation comprising . . . ppm of active compound (Puccinia recondita; 16 ppm) | % infection of the leaves after application of an aqueous preparation comprising . . . ppm of active compound (Puccinia recondita; 63 ppm) |
| --- | --- | --- | --- | --- | --- | --- | --- | --- | --- |
| Cc1cccc(F)c1-c1c(Cl)nc2ncnn2c1NC(C)C(C)(C)C (single isomer, unassigned) [I.-12a] | 0% | 0% | 0% | 7% | 7% | 7% |  |  |  |
| Cc1cccc(F)c1-c1c(Cl)nc2ncnn2c1N[C@H](C)C(C)(C)C (single isomer, unassigned) [I.-12b] | 7% | 7% | 0% | 60% | 60% | 60% |  |  |  |
| C[C@@H](Nc1c(-c2c(F)cccc2Cl)c(Cl)nc2ncnn12)C(C)(C)C [I.-3] |  |  |  |  |  |  | 20% |  |  |
| CC(Nc1c(-c2c(F)cccc2F)c(Cl)nc2ncnn12)C(C)(C)C (stereo not shown) [I.-6] | 0% | 0% |  |  | 50% | 40% |  |  |  |
| CC(Nc1c(-c2c(Cl)cccc2Cl)c(Cl)nc2ncnn12)C(C)(C)C (stereo not shown) [I.-9] | 0% | 0% | 0% |  |  |  |  |  |  |
| C[C@@H](Nc1c(-c2c(F)cc(F)cc2F)c(Cl)nc2ncnn12)C(C)(C)C [I.-15, (R)-5-chloro-7-(3,3-dimethylbut-2-yl)amino-6-(2,4,6-trifluoro-phenyl)-1,2,4-triazolo[1,5-a]pyrimidine] |  |  |  | 7% | 7% | 3% | 0% | 0% | 0% |
| Cc1cc(F)ccc1-c1c(Cl)nc2ncnn2c1NC(C)C(C)(C)C (stereo not shown) [I.-24] |  |  |  | 10% | 5% | 3% |  |  |  |
| CCCCCC(C)Nc1c(-c2c(F)cc(F)cc2F)c(Cl)nc2ncnn12 (stereo not shown) [I.-28] | 90% | 40% | 20% |  |  |  |  |  |  |
| C[C@@H](Nc1c(-c2c(F)cc(F)cc2F)c(Cl)nc2ncnn12)C1CCCCC1 [I.-31] | 40% | 3% | 0% | 15% | 7% | 5% |  |  |  |
| CC[C@@H](C)Nc1c(-c2ccccc2Cl)c(Cl)nc2ncnn12 [I.-42] |  |  |  |  |  |  | 5% | 30% | 20% |
| CC(Nc1c(-c2c(F)cccc2Cl)c(Cl)nc2ncnn12)C(C)(C)C [comparison (S)-amine of I.-3] |  |  |  |  |  |  | 100% |  |  |
| C[C@H](Nc1c(-c2c(F)cccc2F)c(Cl)nc2ncnn12)C(C)(C)C [comparison (S)-amine of I.-6] | 60% | 5% |  |  | 90% | 90% |  |  |  |
| C[C@H](Nc1c(-c2c(Cl)cccc2Cl)c(Cl)nc2ncnn12)C(C)(C)C [comparison (S)-amine of I.-9] | 100% | 100% | 100% |  |  |  |  |  |  |
| Cc1cccc(F)c1-c1c(Cl)nc2ncnn2c1NC(C)C(C)(C)C [comparison (S)-amine of I.-12a] | 100% | 100% | 100% | 100% | 100% | 100% |  |  |  |
| Cc1cccc(F)c1-c1c(Cl)nc2ncnn2c1NC(C)C(C)(C)C [comparison (S)-amine of I.-12b] | 100% | 100% | 100% | 100% | 100% | 100% |  |  |  |
| C[C@H](Nc1c(-c2c(F)cc(F)cc2F)c(Cl)nc2ncnn12)C(C)(C)C [comparison (S)-amine of I.-15] |  |  |  | 90% | 80% | 40% | 100% | 100% | 100% |
| Cc1cc(F)ccc1-c1c(Cl)nc2ncnn2c1NC(C)C(C)(C)C [comparison (S)-amine of I.-24] |  |  |  | 60% | 60% | 15% |  |  |  |
| CCCCC[C@H](C)Nc1c(-c2c(F)cc(F)cc2F)c(Cl)nc2ncnn12 [comparison (S)-amine of I.-28] | 100% | 100% | 100% |  |  |  |  |  |  |
| C[C@H](Nc1c(-c2c(F)cc(F)cc2F)c(Cl)nc2ncnn12)C1CCCCC1 [comparison (S)-amine of I.-31] | 100% | 80% | 80% | 50% | 50% | 15% |  |  |  |
| CCC(C)Nc1c(-c2ccccc2Cl)c(Cl)nc2ncnn12 [comparison (S)-amine of I.-42] |  |  |  |  |  |  | 15% | 100% | 60% |
